Data from ChEMBL document CHEMBL1201862, “PubChem BioAssay data set” (2004).
Active and inactive are the calls of the source.

Columns and labels:
[1] = target: T1, Methionyl-tRNA synthetase, putative (Trypanosoma brucei brucei, UniProt Q38C91); type: functional, Trypanosoma brucei brucei strain 927/4 GUTat10.1
T1 sequence (Q38C91 whole entry): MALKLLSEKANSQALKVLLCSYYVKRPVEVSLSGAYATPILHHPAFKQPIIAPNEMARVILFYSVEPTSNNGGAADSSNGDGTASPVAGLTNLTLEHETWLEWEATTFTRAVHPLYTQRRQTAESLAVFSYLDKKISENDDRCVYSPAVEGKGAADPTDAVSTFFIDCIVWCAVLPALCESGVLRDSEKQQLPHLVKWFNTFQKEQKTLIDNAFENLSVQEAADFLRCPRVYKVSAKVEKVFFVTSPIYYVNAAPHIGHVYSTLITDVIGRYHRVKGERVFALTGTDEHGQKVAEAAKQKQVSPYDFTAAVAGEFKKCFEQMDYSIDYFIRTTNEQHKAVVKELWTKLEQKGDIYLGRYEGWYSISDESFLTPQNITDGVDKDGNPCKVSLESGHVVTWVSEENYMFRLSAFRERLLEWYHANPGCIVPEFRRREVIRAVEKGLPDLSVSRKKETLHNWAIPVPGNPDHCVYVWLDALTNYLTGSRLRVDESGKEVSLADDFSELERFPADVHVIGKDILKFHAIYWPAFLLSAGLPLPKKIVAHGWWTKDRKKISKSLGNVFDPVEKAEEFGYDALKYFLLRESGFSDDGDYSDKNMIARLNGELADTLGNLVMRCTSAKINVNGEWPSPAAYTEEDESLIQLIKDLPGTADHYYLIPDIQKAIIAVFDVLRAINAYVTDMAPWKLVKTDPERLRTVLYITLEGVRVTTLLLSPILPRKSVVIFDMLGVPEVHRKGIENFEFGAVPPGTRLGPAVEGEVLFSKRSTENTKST

[2] = target: T1, Methionyl-tRNA synthetase, putative; type: functional, Trypanosoma brucei brucei strain 927/4 GUTat10.1; remark: listed apart in the source
[3] = Counterscreen for inhibitors of Trypanosoma brucei methionyl tRNA synthetase (MetRS): Luminescence-based cell-based high throughput dose response assay to identify compounds that are cytotoxic to Jurkat human T lymphocyte cells.; type: functional
[4] = target: T2, Small ubiquitin-related modifier 1 (Homo sapiens, UniProt P63165); test: SUMO1 protein-protein binding blockers, potency – biochemical, FRET, dose response (AID 624383); type: functional; conditions: read-out: IC50_Mean
T2 sequence (P63165 whole entry, the tested form may be a part): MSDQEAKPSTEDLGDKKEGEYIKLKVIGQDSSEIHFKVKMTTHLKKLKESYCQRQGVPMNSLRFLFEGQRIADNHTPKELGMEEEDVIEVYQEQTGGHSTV

[5] = inhibition of ARNT PAS-B/TACC3 complex formation – biochemical, AlphaScreen, cherry-picked samples, confirmation (AID 651703); type: functional, Homo sapiens;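 also: His-tagged ARNT PAS-B domain paired with GST-TACC3 E629A dimer coactivator fragment; potency of inhibitors that break up the complex and lower AlphaScreen signal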
Caspase-6 = target: T3, Caspase-6 (Homo sapiens, UniProt P55212); test: inhibition of CASP6 peptide cleavage – biochemical, VEID-R110 fluorescence, cherry-pick, dose response (AID 720632)
T3 sequence (P55212 whole entry): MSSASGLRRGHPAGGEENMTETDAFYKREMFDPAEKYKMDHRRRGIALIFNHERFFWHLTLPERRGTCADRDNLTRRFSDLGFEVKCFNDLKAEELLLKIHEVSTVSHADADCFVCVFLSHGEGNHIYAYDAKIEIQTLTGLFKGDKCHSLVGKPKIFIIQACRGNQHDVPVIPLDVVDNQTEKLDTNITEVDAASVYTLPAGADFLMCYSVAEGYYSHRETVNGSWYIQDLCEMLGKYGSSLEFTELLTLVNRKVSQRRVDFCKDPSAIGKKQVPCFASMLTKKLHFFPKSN

Fatty acid synthase [6] = target: T4, Fatty acid synthase (Homo sapiens, UniProt P49327); test: inhibition of human FAS-TE enzyme activity – biochemical, endpoint fluorescence intensity, uHTS hits, dose response (AID 624327); type: functional;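 also: fluorescence from hydrolysis of an O-methyl fluorescein acyl ester substrate by the enzyme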
T4 sequence (P49327 whole entry): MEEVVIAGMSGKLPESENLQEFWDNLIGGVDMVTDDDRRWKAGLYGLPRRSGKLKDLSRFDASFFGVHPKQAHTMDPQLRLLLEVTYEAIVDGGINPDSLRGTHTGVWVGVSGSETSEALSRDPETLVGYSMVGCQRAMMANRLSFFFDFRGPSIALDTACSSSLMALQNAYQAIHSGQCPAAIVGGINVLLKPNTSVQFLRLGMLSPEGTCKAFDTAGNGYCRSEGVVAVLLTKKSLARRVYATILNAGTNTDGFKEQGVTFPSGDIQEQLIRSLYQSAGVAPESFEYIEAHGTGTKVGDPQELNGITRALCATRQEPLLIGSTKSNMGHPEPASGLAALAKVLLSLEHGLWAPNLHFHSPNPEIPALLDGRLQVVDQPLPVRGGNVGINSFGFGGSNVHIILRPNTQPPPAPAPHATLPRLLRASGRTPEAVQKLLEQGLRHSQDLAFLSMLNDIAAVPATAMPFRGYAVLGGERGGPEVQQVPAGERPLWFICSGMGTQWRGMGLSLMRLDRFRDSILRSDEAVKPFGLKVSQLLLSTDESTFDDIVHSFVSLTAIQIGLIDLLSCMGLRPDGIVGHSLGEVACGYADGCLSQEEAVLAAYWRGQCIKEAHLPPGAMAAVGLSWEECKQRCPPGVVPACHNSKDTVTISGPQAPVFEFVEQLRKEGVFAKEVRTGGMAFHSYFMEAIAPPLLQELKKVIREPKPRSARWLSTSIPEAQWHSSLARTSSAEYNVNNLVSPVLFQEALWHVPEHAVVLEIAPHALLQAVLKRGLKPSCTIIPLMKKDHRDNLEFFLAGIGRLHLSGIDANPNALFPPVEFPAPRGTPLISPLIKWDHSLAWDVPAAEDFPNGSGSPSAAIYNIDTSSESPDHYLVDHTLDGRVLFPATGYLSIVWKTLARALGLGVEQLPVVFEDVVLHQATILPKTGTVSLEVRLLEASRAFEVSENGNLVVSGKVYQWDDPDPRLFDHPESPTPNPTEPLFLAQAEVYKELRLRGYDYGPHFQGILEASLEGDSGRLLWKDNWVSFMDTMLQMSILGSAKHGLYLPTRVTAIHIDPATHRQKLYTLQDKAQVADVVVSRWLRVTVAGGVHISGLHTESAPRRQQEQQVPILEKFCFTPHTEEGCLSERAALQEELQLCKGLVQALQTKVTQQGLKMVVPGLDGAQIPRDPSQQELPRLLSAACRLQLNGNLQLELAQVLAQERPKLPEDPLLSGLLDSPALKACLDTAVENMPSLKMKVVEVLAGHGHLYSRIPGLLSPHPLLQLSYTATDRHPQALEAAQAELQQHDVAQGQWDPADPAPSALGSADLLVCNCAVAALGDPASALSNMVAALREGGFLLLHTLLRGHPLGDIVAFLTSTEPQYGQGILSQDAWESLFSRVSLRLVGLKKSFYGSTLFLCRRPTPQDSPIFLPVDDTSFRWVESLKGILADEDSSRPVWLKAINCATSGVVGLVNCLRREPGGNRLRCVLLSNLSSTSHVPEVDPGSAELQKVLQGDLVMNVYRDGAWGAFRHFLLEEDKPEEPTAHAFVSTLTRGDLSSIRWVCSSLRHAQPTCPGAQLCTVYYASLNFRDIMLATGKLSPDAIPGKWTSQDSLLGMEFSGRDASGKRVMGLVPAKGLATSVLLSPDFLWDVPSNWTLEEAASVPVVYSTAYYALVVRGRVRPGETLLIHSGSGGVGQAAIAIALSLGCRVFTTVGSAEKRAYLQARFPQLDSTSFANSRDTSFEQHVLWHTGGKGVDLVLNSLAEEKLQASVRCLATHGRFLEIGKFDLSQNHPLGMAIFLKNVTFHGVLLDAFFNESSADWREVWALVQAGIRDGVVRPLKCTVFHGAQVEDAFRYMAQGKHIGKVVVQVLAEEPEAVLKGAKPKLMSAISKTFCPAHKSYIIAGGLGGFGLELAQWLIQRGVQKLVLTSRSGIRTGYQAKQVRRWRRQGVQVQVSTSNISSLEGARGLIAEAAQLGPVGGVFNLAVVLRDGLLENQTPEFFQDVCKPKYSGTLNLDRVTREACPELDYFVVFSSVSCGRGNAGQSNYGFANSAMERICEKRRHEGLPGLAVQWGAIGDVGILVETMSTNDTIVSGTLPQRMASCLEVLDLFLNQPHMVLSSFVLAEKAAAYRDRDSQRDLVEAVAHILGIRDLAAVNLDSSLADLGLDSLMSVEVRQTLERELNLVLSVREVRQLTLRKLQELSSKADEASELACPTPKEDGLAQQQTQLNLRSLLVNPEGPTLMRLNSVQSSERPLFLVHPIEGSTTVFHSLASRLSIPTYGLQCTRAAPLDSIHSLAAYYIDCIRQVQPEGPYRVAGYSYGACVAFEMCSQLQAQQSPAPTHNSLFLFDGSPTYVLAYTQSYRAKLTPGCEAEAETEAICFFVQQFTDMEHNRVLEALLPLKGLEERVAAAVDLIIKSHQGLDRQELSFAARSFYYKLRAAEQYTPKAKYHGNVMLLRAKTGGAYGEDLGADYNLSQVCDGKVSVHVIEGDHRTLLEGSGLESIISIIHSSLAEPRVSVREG

Fatty acid synthase [7] = target: T4, Fatty acid synthase; test: inhibition of human FAS-TE enzyme activity – biochemical, kinetic fluorescence intensity, dose response (AID 624326); type: functional;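 also: rate of fluorescence rise from hydrolysis of a fluorogenic O-methyl fluorescein ester substrate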
[8] = target: T2, Small ubiquitin-related modifier 1; test: SUMO1 protein interaction blockers, potency – biochemical, fluorescence polarization, uHTS hits, dose response (AID 624382); type: functional; conditions: read-out: IC50_Mean
[9] = target: T5, Histone-lysine N-methyltransferase NSD2 (Homo sapiens, UniProt O96028); type: biochemical
T5 sequence (O96028 whole entry): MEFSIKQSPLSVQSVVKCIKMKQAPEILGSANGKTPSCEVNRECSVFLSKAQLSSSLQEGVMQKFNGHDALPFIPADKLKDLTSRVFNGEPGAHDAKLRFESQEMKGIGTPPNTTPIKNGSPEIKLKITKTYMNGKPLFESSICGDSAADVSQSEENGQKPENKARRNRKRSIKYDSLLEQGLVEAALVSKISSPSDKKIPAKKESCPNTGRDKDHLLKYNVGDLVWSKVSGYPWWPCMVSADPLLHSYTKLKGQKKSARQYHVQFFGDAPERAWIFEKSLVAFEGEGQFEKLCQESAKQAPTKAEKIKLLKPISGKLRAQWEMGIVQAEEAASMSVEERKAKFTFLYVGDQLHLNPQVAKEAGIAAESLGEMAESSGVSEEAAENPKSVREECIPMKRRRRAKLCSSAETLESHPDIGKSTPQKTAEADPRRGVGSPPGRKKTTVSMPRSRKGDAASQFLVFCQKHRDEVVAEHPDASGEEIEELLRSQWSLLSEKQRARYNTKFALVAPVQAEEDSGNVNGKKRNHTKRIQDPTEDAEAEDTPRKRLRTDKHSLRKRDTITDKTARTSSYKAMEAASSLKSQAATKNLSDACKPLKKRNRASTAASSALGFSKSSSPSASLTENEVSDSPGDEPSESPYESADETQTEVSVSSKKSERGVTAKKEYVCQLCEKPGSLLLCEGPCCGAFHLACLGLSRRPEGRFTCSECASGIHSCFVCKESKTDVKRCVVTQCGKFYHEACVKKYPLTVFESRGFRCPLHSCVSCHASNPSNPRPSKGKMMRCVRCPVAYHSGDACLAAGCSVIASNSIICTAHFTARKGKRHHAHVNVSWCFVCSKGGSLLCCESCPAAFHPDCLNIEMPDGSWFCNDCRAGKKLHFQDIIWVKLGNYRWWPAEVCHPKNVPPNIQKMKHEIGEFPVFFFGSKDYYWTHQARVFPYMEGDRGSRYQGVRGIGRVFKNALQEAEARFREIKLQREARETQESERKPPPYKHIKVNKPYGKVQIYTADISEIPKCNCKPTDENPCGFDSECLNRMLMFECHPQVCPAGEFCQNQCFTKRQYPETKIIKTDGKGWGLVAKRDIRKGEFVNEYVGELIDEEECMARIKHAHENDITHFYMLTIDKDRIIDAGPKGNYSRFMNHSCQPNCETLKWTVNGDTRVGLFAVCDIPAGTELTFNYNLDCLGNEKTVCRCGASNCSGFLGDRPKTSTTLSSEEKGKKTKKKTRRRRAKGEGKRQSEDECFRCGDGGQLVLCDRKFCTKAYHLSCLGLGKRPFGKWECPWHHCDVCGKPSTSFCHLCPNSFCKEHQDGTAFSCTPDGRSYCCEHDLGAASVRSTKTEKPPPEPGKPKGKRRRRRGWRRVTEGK

Beta-galactosidase [10] = target: T6, Beta-galactosidase (Escherichia coli, UniProt Q8VNN2); test: Dose response counterscreen for EBI2 assay utilizing the enzyme, b-galactosidase.; type: functional
T6 sequence (Q8VNN2 whole entry): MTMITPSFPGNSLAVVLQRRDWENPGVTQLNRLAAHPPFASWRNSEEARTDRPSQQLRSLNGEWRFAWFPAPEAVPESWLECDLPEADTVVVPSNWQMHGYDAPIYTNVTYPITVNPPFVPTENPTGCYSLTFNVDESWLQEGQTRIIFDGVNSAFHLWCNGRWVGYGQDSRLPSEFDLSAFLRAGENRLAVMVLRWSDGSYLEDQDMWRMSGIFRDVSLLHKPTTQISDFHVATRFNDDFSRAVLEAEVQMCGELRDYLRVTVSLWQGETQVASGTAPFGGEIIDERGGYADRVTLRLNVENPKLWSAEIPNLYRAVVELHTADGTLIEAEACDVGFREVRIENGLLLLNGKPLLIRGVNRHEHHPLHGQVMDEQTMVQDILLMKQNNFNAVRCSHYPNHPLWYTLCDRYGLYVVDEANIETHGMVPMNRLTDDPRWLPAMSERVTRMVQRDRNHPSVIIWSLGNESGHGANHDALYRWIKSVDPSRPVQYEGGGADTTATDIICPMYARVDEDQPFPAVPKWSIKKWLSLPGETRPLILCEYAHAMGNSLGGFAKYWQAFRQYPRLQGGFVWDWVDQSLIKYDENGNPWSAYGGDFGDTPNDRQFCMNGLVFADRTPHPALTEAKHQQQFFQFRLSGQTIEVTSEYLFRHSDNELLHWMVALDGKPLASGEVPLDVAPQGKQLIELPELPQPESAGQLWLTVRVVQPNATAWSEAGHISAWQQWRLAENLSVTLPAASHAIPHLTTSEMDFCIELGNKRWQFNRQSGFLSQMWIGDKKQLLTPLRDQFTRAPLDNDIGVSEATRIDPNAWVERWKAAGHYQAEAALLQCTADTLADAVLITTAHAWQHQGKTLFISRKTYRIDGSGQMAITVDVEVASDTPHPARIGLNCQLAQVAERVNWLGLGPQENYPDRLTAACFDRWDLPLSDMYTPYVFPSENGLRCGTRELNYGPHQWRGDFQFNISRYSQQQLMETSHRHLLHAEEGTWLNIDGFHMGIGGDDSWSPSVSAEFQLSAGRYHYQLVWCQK

[11] = target: T7, Type-1 angiotensin II receptor (Homo sapiens, UniProt P30556); test: antagonism of angiotensin II type 1 receptor – cell-based, uHTS hits, selectivity assay for APJ receptor antagonist project, dose response (AID 463214); type: functional;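 also: antagonist potency against angiotensin II stimulated AT1 response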
T7 sequence (P30556 whole entry): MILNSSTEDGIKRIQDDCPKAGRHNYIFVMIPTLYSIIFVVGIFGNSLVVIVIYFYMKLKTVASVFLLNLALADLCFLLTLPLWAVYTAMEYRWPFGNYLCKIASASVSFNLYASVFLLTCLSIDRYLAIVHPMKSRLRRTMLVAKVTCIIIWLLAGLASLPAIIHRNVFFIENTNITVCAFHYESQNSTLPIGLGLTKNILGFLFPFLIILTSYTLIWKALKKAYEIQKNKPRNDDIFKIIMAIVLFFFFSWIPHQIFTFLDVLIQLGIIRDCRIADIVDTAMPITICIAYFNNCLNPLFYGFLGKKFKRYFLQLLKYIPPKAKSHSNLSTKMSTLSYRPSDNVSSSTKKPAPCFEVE

Beta-galactosidase [12] = target: T6, Beta-galactosidase; test: PubChem AID 485352; type: functional
[13] = target: SWI/SNF-related matrix-associated actin-dependent regulator of chromatin subfamily A member 2 (Homo sapiens, UniProt P51531); test: Luminescence-based cell-based high throughput dose response assay to identify activators of the function of SWI/SNF related, matrix associated, actin dependent regulator of chromatin, subfamily a, member 2 (SMARCA2, BRM).; type: functional
[14] = target: T8, Microphthalmia-associated transcription factor (Homo sapiens, UniProt O75030); test: reducers of TRPM1 reporter luminescence, concentration series – cell-based, SK-MEL-5, cherry-picked, set 3, MITF inhibitor project, dose response (AID 493073); type: functional;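 also: SK-MEL-5 melanoma cells with luciferase driven by the MITF target TRPM1 promoter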
T8 sequence (O75030 whole entry): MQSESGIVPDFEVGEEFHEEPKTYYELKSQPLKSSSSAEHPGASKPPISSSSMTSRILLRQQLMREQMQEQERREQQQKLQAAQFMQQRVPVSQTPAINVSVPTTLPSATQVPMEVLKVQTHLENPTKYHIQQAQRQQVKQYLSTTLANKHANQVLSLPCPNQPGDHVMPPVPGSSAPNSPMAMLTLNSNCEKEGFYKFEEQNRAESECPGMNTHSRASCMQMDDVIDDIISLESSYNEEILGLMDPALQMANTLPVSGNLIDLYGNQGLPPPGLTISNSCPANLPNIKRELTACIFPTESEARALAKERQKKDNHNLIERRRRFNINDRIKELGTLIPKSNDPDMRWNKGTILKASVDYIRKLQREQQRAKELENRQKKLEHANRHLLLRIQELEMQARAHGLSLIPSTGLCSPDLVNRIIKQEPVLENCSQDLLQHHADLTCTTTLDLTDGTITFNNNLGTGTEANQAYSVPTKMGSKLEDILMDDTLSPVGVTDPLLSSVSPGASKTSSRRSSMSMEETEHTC

[15] = Counterscreen for activators of the function of SWI/SNF related, matrix associated, actin dependent regulator of chromatin, subfamily a, member 2 (SMARCA2, BRM): Luminescence-based cell-based high throughput dose response assay to identify non-selective compounds using the VP16 reporter assay.; type: functional

N#Cc1ccc(CSc2nnc(Nc3ccccc3)s2)cc1
IC50 [1]: 7.66 µM (active) | IC50 [2]: 119 µM (inactive) | IC50 [3]: 83.3 µM (inactive)

N#Cc1cc2ccc(N3CCOCC3)cc2cc1C#N
IC50 [4]: 100 µM (inactive) | AC50 [5]: 116 µM (active) | AC50 (Caspase-6): 29.9 µM (active) | IC50 (Fatty acid synthase [6]): 5.9 µM (active) | IC50 (Fatty acid synthase [7]): 4.31 µM (active) | IC50 [8]: > 66.6 µM (inactive) | AC50 [9]: 3.05 µM (active)

Cc1ccc(C(=O)CNc2ccc(Br)cc2)cc1
IC50 (Beta-galactosidase [10]): > 80 µM (inactive) | IC50 [11]: 7.47 µM (active) | EC50 (Beta-galactosidase [12]): > 40 µM (inactive)

CCN1CCN(c2ccc(S(=O)(=O)N3CCCCC3)cc2NC(=O)/C=C/c2ccc([N+](=O)[O-])cc2)CC1
EC50 [13]: > 91.2 µM (inactive) | AC50 [14]: 7.51 µM (active) | EC50 [15]: > 91.2 µM (inactive)

N#C/C(=N/Nc1ccccc1F)C(=N)N1CCOCC1
EC50 [13]: > 91.2 µM (inactive) | EC50 [15]: > 91.2 µM (inactive)
